Data published in ChEMBL document CHEMBL3885881, “DrugMatrix”.

Species on record: Rattus norvegicus
Assay: DrugMatrix - Regimen: Daily Repeat
Type: toxicity, organism-based, Sprague-Dawley
Set-up: regimen Daily Repeat, gender Male, age 6-8 weeks
Settings: in vivo, po, route oral GAVAGE, vehicle .5 % CMC; for ABSOLUTE BASOPHIL / ABSOLUTE EOSINOPHIL / ABSOLUTE LYMPHOCYTE / ABSOLUTE MONOCYTE / ABSOLUTE SEGMENTED NEUTROPHIL / BASOPHIL / EOSINOPHIL / ERYTHROCYTE COUNT / HEMATOCRIT / HEMOGLOBIN / LEUKOCYTE COUNT / LYMPHOCYTE / MEAN CORPUSCULAR HEMOGLOBIN / MEAN CORPUSCULAR HEMOGLOBIN CONCENTRATION / MEAN CORPUSCULAR VOLUME / MONOCYTE / NEUTROPHIL / NUCLEATED RED BLOOD CELLS / PLATELET COUNT: tissue Blood; for ALANINE AMINOTRANSFERASE / ALBUMIN / ALKALINE PHOSPHATASE / ASPARTATE AMINOTRANSFERASE / BLOOD UREA NITROGEN / CARBON DIOXIDE / CHLORIDE / CHOLESTEROL / CREATINE PHOSPHOKINASE / CREATININE / GLUCOSE / LACTATE DEHYDROGENASE / LIPASE / PHOSPHORUS / POTASSIUM / SODIUM / TOTAL BILIRUBIN / TOTAL PROTEIN / URIC ACID: tissue Plasma
[1] = 30 mg/kg, 72 h, dose level Low, time 3 day
[2] = 30 mg/kg, 120 h, dose level Low, time 5 day
[3] = 1200 mg/kg, 72 h, dose level High, time 3 day
[4] = 1200 mg/kg, 120 h, dose level High, time 5 day

## CN(Cc1cc(Br)cc(Br)c1N)C1CCCCC1 [BROMHEXINE]
[1]
  ABSOLUTE BASOPHIL: 0 CELLS/uL
  ABSOLUTE EOSINOPHIL: 52.67 CELLS/uL
  ABSOLUTE LYMPHOCYTE: 13749.67 CELLS/uL
  ABSOLUTE MONOCYTE: 46.33 CELLS/uL
  ABSOLUTE SEGMENTED NEUTROPHIL: 484.67 CELLS/uL
  BASOPHIL: 0%
  EOSINOPHIL: 0.33%
  ERYTHROCYTE COUNT: 5.57 x10E6/uL
  HEMATOCRIT: 34.67%
  HEMOGLOBIN: 13.63 G/DL
  LEUKOCYTE COUNT: 14.33 x10E3/uL
  LYMPHOCYTE: 96%
  MEAN CORPUSCULAR HEMOGLOBIN: 24.5 pg
  MEAN CORPUSCULAR HEMOGLOBIN CONCENTRATION: 39.37 G/DL
  MEAN CORPUSCULAR VOLUME: 62.23 fL
  MONOCYTE: 0.33%
  NEUTROPHIL: 3.33%
  NUCLEATED RED BLOOD CELLS: 0.33 /100WBC
  PLATELET COUNT: 1277.67 x10E3/uL
  ALANINE AMINOTRANSFERASE: 49 u/L
  ALBUMIN: 4.13 G/DL
  ALKALINE PHOSPHATASE: 406.33 u/L
  ASPARTATE AMINOTRANSFERASE: 85 u/L
  BLOOD UREA NITROGEN: 15 mg/dL
  CARBON DIOXIDE: 23 mmol/L
  CHLORIDE: 103.67 MEQ/L
  CHOLESTEROL: 65.67 mg/dL
  CREATINE PHOSPHOKINASE: 317.67 u/L
  CREATININE: 0.18 mg/dL
  GLUCOSE: 158 mg/dL
  LACTATE DEHYDROGENASE: 370.33 u/L
  LIPASE: 9 u/L
  PHOSPHORUS: 12.77 mg/dL
  POTASSIUM: 6.95 MEQ/L
  SODIUM: 145.43 MEQ/L
  TOTAL BILIRUBIN: 0.2 mg/dL
  TOTAL PROTEIN: 5.77 G/DL
  URIC ACID: 1.67 mg/dL
[2]
  ABSOLUTE BASOPHIL: 0 CELLS/uL
  ABSOLUTE EOSINOPHIL: 128.67 CELLS/uL
  ABSOLUTE LYMPHOCYTE: 16146.33 CELLS/uL
  ABSOLUTE MONOCYTE: 429 CELLS/uL
  ABSOLUTE SEGMENTED NEUTROPHIL: 1529.33 CELLS/uL
  BASOPHIL: 0%
  EOSINOPHIL: 0.67%
  ERYTHROCYTE COUNT: 5.35 x10E6/uL
  HEMATOCRIT: 33.4%
  HEMOGLOBIN: 13.33 G/DL
  LEUKOCYTE COUNT: 18.23 x10E3/uL
  LYMPHOCYTE: 88.67%
  MEAN CORPUSCULAR HEMOGLOBIN: 24.97 pg
  MEAN CORPUSCULAR HEMOGLOBIN CONCENTRATION: 39.9 G/DL
  MEAN CORPUSCULAR VOLUME: 62.5 fL
  MONOCYTE: 2.33%
  NEUTROPHIL: 8.33%
  NUCLEATED RED BLOOD CELLS: 0 /100WBC
  PLATELET COUNT: 1294.67 x10E3/uL
  ALANINE AMINOTRANSFERASE: 51.33 u/L
  ALBUMIN: 4.27 G/DL
  ALKALINE PHOSPHATASE: 334 u/L
  ASPARTATE AMINOTRANSFERASE: 80.67 u/L
  BLOOD UREA NITROGEN: 15.67 mg/dL
  CARBON DIOXIDE: 24.67 mmol/L
  CHLORIDE: 103.67 MEQ/L
  CHOLESTEROL: 75.33 mg/dL
  CREATINE PHOSPHOKINASE: 235.67 u/L
  CREATININE: 0.15 mg/dL
  GLUCOSE: 144.33 mg/dL
  LACTATE DEHYDROGENASE: 206.67 u/L
  LIPASE: 8 u/L
  PHOSPHORUS: 12.53 mg/dL
  POTASSIUM: 6.56 MEQ/L
  SODIUM: 145.97 MEQ/L
  TOTAL BILIRUBIN: 0.2 mg/dL
  TOTAL PROTEIN: 5.87 G/DL
  URIC ACID: 1.43 mg/dL
[3]
  ABSOLUTE BASOPHIL: 0 CELLS/uL
  ABSOLUTE EOSINOPHIL: 0 CELLS/uL
  ABSOLUTE LYMPHOCYTE: 11402.67 CELLS/uL
  ABSOLUTE MONOCYTE: 42 CELLS/uL
  ABSOLUTE SEGMENTED NEUTROPHIL: 922 CELLS/uL
  BASOPHIL: 0%
  EOSINOPHIL: 0%
  ERYTHROCYTE COUNT: 5.83 x10E6/uL
  HEMATOCRIT: 36.2%
  HEMOGLOBIN: 14.53 G/DL
  LEUKOCYTE COUNT: 12.37 x10E3/uL
  LYMPHOCYTE: 92.33%
  MEAN CORPUSCULAR HEMOGLOBIN: 24.93 pg
  MEAN CORPUSCULAR HEMOGLOBIN CONCENTRATION: 40.13 G/DL
  MEAN CORPUSCULAR VOLUME: 62.07 fL
  MONOCYTE: 0.33%
  NEUTROPHIL: 7.33%
  NUCLEATED RED BLOOD CELLS: 0 /100WBC
  PLATELET COUNT: 1700.33 x10E3/uL
  ALANINE AMINOTRANSFERASE: 65.67 u/L
  ALBUMIN: 4.33 G/DL
  ALKALINE PHOSPHATASE: 494.33 u/L
  ASPARTATE AMINOTRANSFERASE: 82.67 u/L
  BLOOD UREA NITROGEN: 12 mg/dL
  CARBON DIOXIDE: 21.33 mmol/L
  CHLORIDE: 102.5 MEQ/L
  CHOLESTEROL: 83.67 mg/dL
  CREATINE PHOSPHOKINASE: 249.33 u/L
  CREATININE: 0.17 mg/dL
  GLUCOSE: 162.67 mg/dL
  LACTATE DEHYDROGENASE: 125.67 u/L
  LIPASE: 13 u/L
  PHOSPHORUS: 12.63 mg/dL
  POTASSIUM: 5.48 MEQ/L
  SODIUM: 143.2 MEQ/L
  TOTAL BILIRUBIN: 0.17 mg/dL
  TOTAL PROTEIN: 5.8 G/DL
  URIC ACID: 1.93 mg/dL
[4]
  ABSOLUTE BASOPHIL: 0 CELLS/uL
  ABSOLUTE EOSINOPHIL: 0 CELLS/uL
  ABSOLUTE LYMPHOCYTE: 22503 CELLS/uL
  ABSOLUTE MONOCYTE: 323.33 CELLS/uL
  ABSOLUTE SEGMENTED NEUTROPHIL: 1973.67 CELLS/uL
  BASOPHIL: 0%
  EOSINOPHIL: 0%
  ERYTHROCYTE COUNT: 6.56 x10E6/uL
  HEMATOCRIT: 39.57%
  HEMOGLOBIN: 16.23 G/DL
  LEUKOCYTE COUNT: 24.8 x10E3/uL
  LYMPHOCYTE: 90%
  MEAN CORPUSCULAR HEMOGLOBIN: 24.77 pg
  MEAN CORPUSCULAR HEMOGLOBIN CONCENTRATION: 41.07 G/DL
  MEAN CORPUSCULAR VOLUME: 60.37 fL
  MONOCYTE: 1.33%
  NEUTROPHIL: 8.67%
  NUCLEATED RED BLOOD CELLS: 0 /100WBC
  PLATELET COUNT: 1311.67 x10E3/uL
  ALANINE AMINOTRANSFERASE: 66.67 u/L
  ALBUMIN: 4.5 G/DL
  ALKALINE PHOSPHATASE: 440.33 u/L
  ASPARTATE AMINOTRANSFERASE: 86 u/L
  BLOOD UREA NITROGEN: 19.67 mg/dL
  CARBON DIOXIDE: 25 mmol/L
  CHLORIDE: 102 MEQ/L
  CHOLESTEROL: 90.67 mg/dL
  CREATINE PHOSPHOKINASE: 343.67 u/L
  CREATININE: 0.2 mg/dL
  GLUCOSE: 132 mg/dL
  LACTATE DEHYDROGENASE: 171.33 u/L
  LIPASE: 9.33 u/L
  PHOSPHORUS: 11.03 mg/dL
  POTASSIUM: 6.65 MEQ/L
  SODIUM: 144.3 MEQ/L
  TOTAL BILIRUBIN: 0.17 mg/dL
  TOTAL PROTEIN: 6.17 G/DL
  URIC ACID: 1.33 mg/dL
